In BigSolDB 2.1:

O=P1(Oc2ccccc2)OCC2(CO1)COP(=O)(Oc1ccccc1)OC2 (centres undefined)
Settings | solubility (mole fraction)
in 1,4-dioxane, 293.26 K | 0.00132
in 1,4-dioxane, 298.45 K | 0.00152
in 1,4-dioxane, 303.26 K | 0.00181
in 1,4-dioxane, 308.67 K | 0.00214
in 1,4-dioxane, 313.24 K | 0.00253
in 1,4-dioxane, 318.36 K | 0.00294
in 1,4-dioxane, 323.35 K | 0.00335
in 1,4-dioxane, 328.23 K | 0.00383
in 1,4-dioxane, 333.36 K | 0.00438
in 1,4-dioxane, 338.25 K | 0.00499
in 2-butanone, 293.15 K | 0.00399
in 2-butanone, 298.16 K | 0.00446
in 2-butanone, 303.17 K | 0.00506
in 2-butanone, 308.18 K | 0.00575
in 2-butanone, 313.16 K | 0.00638
in 2-butanone, 318.19 K | 0.00733
in 2-butanone, 323.15 K | 0.00809
in 2-ethoxyethanol, 293.24 K | 0.00325
in 2-ethoxyethanol, 298.24 K | 0.00392
in 2-ethoxyethanol, 303.16 K | 0.00455
in 2-ethoxyethanol, 308.17 K | 0.00543
in 2-ethoxyethanol, 313.23 K | 0.00637
in 2-ethoxyethanol, 318.16 K | 0.00756
in 2-ethoxyethanol, 323.18 K | 0.00897
in 2-ethoxyethanol, 328.15 K | 0.0104
in 2-ethoxyethanol, 333.16 K | 0.0122
in 2-ethoxyethanol, 338.17 K | 0.014
in 2-ethoxyethanol, 343.16 K | 0.0161
in 2-ethoxyethanol, 348.17 K | 0.0185
in 2-ethoxyethanol, 353.16 K | 0.0215
in 2-ethoxyethanol, 358.16 K | 0.0244
in 2-ethoxyethanol, 363.17 K | 0.0277
in 2-ethoxyethanol, 368.16 K | 0.0319
in THF, 293.53 K | 0.00524
in THF, 298.16 K | 0.00615
in THF, 303.49 K | 0.00727
in THF, 308.25 K | 0.00845
in THF, 313.35 K | 0.00996
in THF, 318.31 K | 0.0115
in THF, 323.35 K | 0.0133
in THF, 328.46 K | 0.0153
in acetone, 293.17 K | 0.00237
in acetone, 298.16 K | 0.00275
in acetone, 303.26 K | 0.00322
in acetone, 308.57 K | 0.00371
in acetone, 313.24 K | 0.00421
in acetone, 318.07 K | 0.00479
in acetone, 323.25 K | 0.00542
in acetone, 328.36 K | 0.00622
in acetonitrile, 293.31 K | 0.00156
in acetonitrile, 298.17 K | 0.00187
in acetonitrile, 303.26 K | 0.00223
in acetonitrile, 308.57 K | 0.00273
in acetonitrile, 313.35 K | 0.00318
in acetonitrile, 318.24 K | 0.00375
in acetonitrile, 323.36 K | 0.00438
in acetonitrile, 328.27 K | 0.00522
in acetonitrile, 333.35 K | 0.00614
in acetonitrile, 338.56 K | 0.00738
in acetonitrile, 343.44 K | 0.00841
in benzene, 293.17 K | 0.00119
in benzene, 298.16 K | 0.00121
in benzene, 304.76 K | 0.00124
in benzene, 308.37 K | 0.00127
in benzene, 313.55 K | 0.00129
in benzene, 318.26 K | 0.00133
in benzene, 323.24 K | 0.00136
in benzene, 328.43 K | 0.00138
in benzene, 333.46 K | 0.00141
in benzene, 338.34 K | 0.00143
in benzene, 343.26 K | 0.00145
in benzene, 348.35 K | 0.00147
in chloroform, 293.25 K | 0.00224
in chloroform, 298.17 K | 0.00319
in chloroform, 303.25 K | 0.00436
in chloroform, 308.56 K | 0.00611
in chloroform, 313.25 K | 0.00806
in chloroform, 318.25 K | 0.0106
in chloroform, 323.04 K | 0.0139
in chloroform, 328.35 K | 0.0188
in chloroform, 333.13 K | 0.0234
in dichloromethane, 293.16 K | 0.00103
in dichloromethane, 299.22 K | 0.00127
in dichloromethane, 303.86 K | 0.00146
in dichloromethane, 307.6 K | 0.00167
in diethyl ether, 291.95 K | 0.00179
in diethyl ether, 295.37 K | 0.00204
in diethyl ether, 299.26 K | 0.00234
in diethyl ether, 303.55 K | 0.00275
in ethanol, 298.16 K | 0.00136
in ethanol, 303.15 K | 0.00157
in ethanol, 308.16 K | 0.00187
in ethanol, 313.14 K | 0.00218
in ethanol, 318.16 K | 0.00246
in ethanol, 323.16 K | 0.00288
in ethanol, 328.17 K | 0.00329
in ethanol, 333.16 K | 0.00383
in ethanol, 338.16 K | 0.00426
in ethanol, 343.15 K | 0.00485
in ethyl acetate, 293.25 K | 0.00107
in ethyl acetate, 298.46 K | 0.00132
in ethyl acetate, 303.27 K | 0.00158
in ethyl acetate, 308.66 K | 0.00193
in ethyl acetate, 313.27 K | 0.0023
in ethyl acetate, 318.35 K | 0.00281
in ethyl acetate, 323.35 K | 0.00334
in ethyl acetate, 328.26 K | 0.00392
in ethyl acetate, 333.37 K | 0.00459
in ethyl acetate, 338.26 K | 0.00539
in methanol, 293.24 K | 0.00271
in methanol, 298.24 K | 0.00298
in methanol, 303.16 K | 0.00329
in methanol, 308.17 K | 0.00365
in methanol, 313.23 K | 0.00401
in methanol, 318.16 K | 0.00443
in methanol, 323.15 K | 0.00483
in pyridine, 293.43 K | 0.00813
in pyridine, 298.35 K | 0.00885
in pyridine, 303.51 K | 0.00964
in pyridine, 308.35 K | 0.0104
in pyridine, 313.35 K | 0.0114
in pyridine, 318.31 K | 0.0123
in pyridine, 323.35 K | 0.0132
in pyridine, 328.45 K | 0.0141
in toluene, 298.17 K | 0.00115
in toluene, 303.25 K | 0.00143
in toluene, 308.56 K | 0.00185
in toluene, 313.34 K | 0.00229
in toluene, 318.26 K | 0.00285
in toluene, 323.37 K | 0.00352
in toluene, 328.25 K | 0.00424
in toluene, 333.34 K | 0.00536
in toluene, 338.56 K | 0.00646
in toluene, 343.45 K | 0.00781
in water, 293.18 K | 0.00014
in water, 298.77 K | 0.0002
in water, 308.37 K | 0.0003
in water, 313.56 K | 0.00037
in water, 318.25 K | 0.0005
in water, 323.24 K | 0.00064
in water, 328.43 K | 0.00086
in water, 333.45 K | 0.00116
in water, 338.36 K | 0.00148
in water, 343.26 K | 0.00188
in water, 348.35 K | 0.00241
in water, 353.24 K | 0.00295
in water, 358.25 K | 0.00371
in water, 363.36 K | 0.00477
in water, 368.25 K | 0.00591
